Reference: patent publication US20090317293A1, “METHOD AND DEVICE FOR ELIMINATING MICROBES WITHIN INDUSTRIAL PIPELINES” (BioCorrosion Solutions Inc., priority 2008, published 2009)

Key:
[1] = test system: D. desulfuricans (ATCC#14563) biofilms; experiment: Photodynamic disinfection of peg biofilms, 670 nm laser, anaerobic (Example X); assay type: cell-based, Desulfovibrio desulfuricans; settings: control: methylene blue formulation alone, no laser light
[2] = test system: D. vulgaris (ATCC#29579) biofilms; experiment: as above; assay type: cell-based, Desulfovibrio vulgaris; settings: control: methylene blue formulation alone, no laser light
[3] = test system: Desulfovibrio vulgaris (ATCC#29579); experiment: In vitro photodynamic disinfection of planktonic bacteria, aerobic and anaerobic (Example IX); assay type: cell-based
Procedure: An in vitro photodynamic disinfection model was used to evaluate antibacterial efficacy against a strain of bacteria commonly found in biofilms growing on the inner surface of industrial oil and gas pipelines. […] This organism is a facultative anaerobe, and typically grows in nature in environments that contain little or no oxygen. Thus, prior to the experiments the bacteria was grown on pre-reduced solid media (brucella blood agar enriched with haemin and vitamin K) at 37° C. under anaerobic conditions. The exposures to photodynamic disinfection were run in both anaerobic and aerobic conditions in order to determine the importance of local oxygen during the photoreaction. […] In addition, several experimental conditions were run in the presence of L-tryptophan, which is a known scavenger of singlet oxygen and other oxygen derived free radicals. The addition of L-tryptophan was designed to test whether the antimicrobial killing effect of photodynamic disinfection was in fact dependent on the generation of reactive forms of oxygen. […] In addition, controls consisting of exposure to either photosensitizer or illumination alone were run to ensure that neither of these variables contributed to bacterial killing on their own. For these photodynamic disinfection experiments, log phase planktonic bacterial inoculum was prepared to a concentration of 10^7 colony-forming units per milliliter (CFU/ml) in a buffered saline solution. […] After illumination, samples were serially diluted and plated on tryptic soy agar for 48 hours at 37° C. Raw surviving colony counts for each experimental condition were averaged and back-calculated given dilution factor to give data in CFU/ml. The data was presented as CFU/ml of surviving organisms after treatment, and kill rate was calculated as this value in experimental samples vs. control (no light, no photosensitizer) and expressed as both a log and percentage reduction in viability. The entire experimental protocol was performed in the dark, and all samples were exposed and plated one at a time to limit ambient light exposure and to maintain the exposure time of bacteria to test solution uniform across all replicates. All experimental and control conditions were run in triplicate for each individual experiment, and experiments were performed on three separate occasions to verify reproducibility.

[4] = test system: D. desulfuricans biofilms; experiment: Photodynamic disinfection of well-plate biofilms, broadband light, anaerobic (Example XI); assay type: cell-based, Desulfovibrio desulfuricans; settings: 0.1%, then 60 second broadband illumination
Procedure: (§1) In this study, biofilms of sulfate reducing bacteria were treated with photodynamic disinfection as in Example X above. In these experiments, however, illumination of the biofilms was performed using a broadband (wide wavelength) light source instead of a laser. […] For the broadband light photodynamic disinfection exposures, biofilms of D. vulgaris and D. sulfuricans were grown on the inner surface of flat-bottomed 96-well plates. In brief, 50 μl of liquid inoculum in log growth phase was added to each well, and plates were then incubated (37° C.) on an […] shaker at 125 rpm for 48 hours in order to allow biofilm growth. […] After this growth period, plates were removed from the shaker into an anaerobic cabinet, where all photodynamic disinfection treatments were performed. […] Raw surviving colony counts for each experimental condition were averaged and back-calculated given dilution factor to give data in CFU/ml. The data was presented as CFU/ml of surviving organisms after treatment, and kill rate was calculated as this value in experimental samples vs. control (no light, no photosensitizer) and expressed as both a log and percentage reduction in viability. […]

D. vulgaris biofilms = experiment: as above; assay type: cell-based, Desulfovibrio vulgaris; settings: 0.1% w/v, 30 seconds, then 60 seconds broadband illumination (150 watt haloid lamp)
Procedure: as §1

[5] = test system: D. vulgaris (ATCC#29579) biofilms; experiment: Treatment of peg biofilms with chemical disinfectant, anaerobic (Example X); assay type: cell-based, Desulfovibrio vulgaris
Procedure: (§2) Homogenous biofilms of the sulfate reducing organisms D. vulgaris (ATCC#29579) and D. desulfuricans (ATCC#14563) were grown on hard plastic pegs using a previously published protocol and system (Innovotech, Calgary, Canada). Briefly, bacterial suspensions of D. vulgaris and D. desulfuricans consisting of 10^8 CFU/ml were prepared in modified Barrs medium for sulfate reducers (ATCC), then diluted 1:40. 200 μl of this inoculum was added to each well of a 96-well plate. 96-peg lids were then placed into the wells and the assembly was incubated at 37° C. on an Excella E2 gyrorotary shaker (Fisher Scientific) at 125 rpm for 24 hours. For both biofilm protocols, all inoculum and plates were prepared and incubated anaerobically. During the incubation period, the visible formation of an insoluble black residue in each well indicated bacterial metabolism, and after incubation a visible biofilm was evident on each pegs.
(§3) For treatment of biofilms with benzalkonium chloride (BAC), biofilms grown on pegs as described above were used. 96-peg lids were removed from the bacterial inoculum after 24 hours of incubation, and rinsed twice to remove any free-floating organisms by placing the peg lid in 96-well plates containing 300 μl of sterile water. Pegs were then placed in aqueous solutions containing either 0% (water only control), 0.01%, 0.1%, or 1% BAC for 30 seconds. After this exposure pegs were immediately placed in recovery media and processed/plated as described above for enumeration of surviving organisms. All BAC exposure conditions were run in triplicate in anaerobic conditions for each organism.

[6] = test system: D. desulfuricans (ATCC#14563) biofilms; experiment: as above; assay type: cell-based, Desulfovibrio desulfuricans
Procedure: as §2, §3

[7] = aerobic, 0.01% w/v aqueous methylene blue, 670 nm diode laser 20.6 J/cm2 (60 seconds), planktonic
[8] = anaerobic, 0.01% w/v aqueous methylene blue, 670 nm laser 20.6 J/cm2, planktonic
[9] = 30 second exposure to 0.01% aqueous solution
[10] = 30 second exposure to 0.1% aqueous solution
[11] = 30 second exposure to 1% aqueous solution

Compound	reduction in biofilm viability [1]	reduction in biofilm viability [2]	killing [3, 7] [%]	log10 reduction in viability vs. non-treated controls [3, 7] [log10]	log10 reduction in viability vs. non-treated controls ([3]; aerobic, 0.01% w/v methylene blue with 20 mM L-tryptophan, 670 nm laser 20.6 J/cm2, planktonic) [log10]	killing [3, 8] [%]	log10 reduction vs. non-treated control [3, 8] [log10]	log10 reduction from non-treated control ([3]; anaerobic, 0.01% w/v methylene blue with 20 mM L-tryptophan, 670 nm laser 20.6 J/cm2, planktonic) [log10]	antibacterial action ([3]; control: photosensitizer composition alone, no illumination)	reduction in viability [4]	decrease in viability compared to non-treated control (D. vulgaris biofilms) [log10]	inhibition at 0.1 % strength (D. vulgaris biofilms; Nitratidesulfovibrio vulgaris, read-out: decrease in viability compared to non-treated control) [%]	reduction in viability vs. non-treated control [5, 9] [log10]	reduction in viability vs. non-treated control [5, 10] [log10]	reduction in viability vs. non-treated control [5, 11] [log10]	reduction in viability vs. non-treated control [6, 9] [log10]	reduction in viability vs. non-treated control [6, 10] [log10]	reduction in viability vs. non-treated control [6, 11] [log10]
CN(C)c1ccc2nc3ccc(=[N+](C)C)cc-3sc2c1 [methylene blue]	Neither the methylene blue formulation nor the laser light alone led to any significant reduction	Neither the methylene blue formulation nor the laser light alone led to any significant reduction	> 99.99	4.4±2.3	1.7±0.6	> 99.9	3.5±0.8	2.5±2.1	No significant antibacterial action	did not result in a significant reduction in viability	1.5	~95						
benzalkonium chloride [BAC]													0.5	1.4	1.5	0.6	2.7	1.9
